# Data reported in patent US4727062A, “3-Halovinylglycine antibacterial agents” (Merck & Co., Inc., priority 1986, dated 1988).
# What was measured:
# Ser. marcescens = assay: Agar dilution assay, M.I.C.; format: cell-based
# Protocol: (§1) Representative 3-halovinylglycines and amino acid conjugates were tested for antibacterial activity by an agar dilution assay [being an modification of the antagonist-free-medium assay described in: Antimicrobial Agents and Chemotherapy, May 1979, pp 677-683 and pp 684-695]. Compounds asayed include (L) and (D)-3-chlorovinylglycine (HCL salts), (L) norvalyl-(L), (D), and (DL)-3-chlorovinylglycine (CF3 COOH salts), and (L) norvalyl-(L), (D), and (DL)-3 fluorovinylglycine (CF3 COOH) salts.
# (§2) The antibacterial activity of the representative structure I compounds versus eleven representative strains of pathogenic bacteria is shown in the following Table.
# (§3) Agar Dilution Asay [minimum inhibitory concentration (M.I.C.)-mg/ml]
# Ps. aeruginosa = assay: Agar dilution assay, M.I.C.; format: cell-based
# Protocol: as §1, §2, §3
# Strep. faecalis = assay: Agar dilution assay, M.I.C.; format: cell-based
# Protocol: as §1, §2, §3
# E. coli TEM 2^+ = assay: Agar dilution assay, M.I.C.; format: cell-based
# Protocol: as §1, §2, §3
# S. aureus = assay: Agar dilution assay, M.I.C.; format: cell-based; details: for minimum inhibitory concentration (M.I.C.): agar dilution, S. aureus
# Protocol: as §1, §2, §3
# Prot. vulgaris = assay: Agar dilution assay, M.I.C.; format: cell-based
# Protocol: as §1, §2, §3
# K. pneumoniae = assay: Agar dilution assay, M.I.C.; format: cell-based; details: for minimum inhibitory concentration (M.I.C.): agar dilution, K. pneumoniae
# Protocol: as §1, §2, §3
# E. coli DC2 = assay: Agar dilution assay, M.I.C.; format: cell-based
# Protocol: as §1, §2, §3
# Sal. typhimurium = assay: Agar dilution assay, M.I.C.; format: cell-based
# Protocol: as §1, §2, §3
# E. coli = assay: Agar dilution assay, M.I.C.; format: cell-based
# Protocol: as §1, §2, §3
# cystathionine synthetase = details: synthesis of cystathionine from serine; cited from earlier work
# Ent. cloacae P99^- = assay: Agar dilution assay, M.I.C.; format: cell-based
# Protocol: as §1, §2, §3
# [1] = system: eleven representative strains of pathogenic bacteria; assay: Agar dilution assay, panel of eleven strains; format: cell-based; details: for number of test species against which activity is shown: M.I.C. equal to or less than 256 indicates antibacterial activity
# Protocol: as §1, §2
Structure (SMILES),minimum inhibitory concentration (M.I.C.) (Ser. marcescens) [mg/mL],minimum inhibitory concentration (M.I.C.) (Ps. aeruginosa) [mg/mL],minimum inhibitory concentration (M.I.C.) (Strep. faecalis) [mg/mL],minimum inhibitory concentration (M.I.C.) (E. coli TEM 2^+) [mg/mL],minimum inhibitory concentration (M.I.C.) (S. aureus) [mg/mL],minimum inhibitory concentration (M.I.C.) (Prot. vulgaris) [mg/mL],minimum inhibitory concentration (M.I.C.) (K. pneumoniae) [mg/mL],minimum inhibitory concentration (M.I.C.) (E. coli DC2) [mg/mL],minimum inhibitory concentration (M.I.C.) (Sal. typhimurium) [mg/mL],minimum inhibitory concentration (M.I.C.) (E. coli) [mg/mL],inactivation of cystathionine synthetase (in words) (cystathionine synthetase),minimum inhibitory concentration (M.I.C.) (Ent. cloacae P99^-) [mg/mL],number of test species against which activity is shown [1],"antibacterial activity compared with the (L,D) diastereomer ([1]; antibacterial agar dilution assay)",antibacterial activity (in words) (S. aureus; vs S. aureus),antibacterial activity (in words) (K. pneumoniae; vs K. pneumoniae)
"C=C(Cl)C(NC(=O)[C@@H](N)CCC)C(=O)O (mixture of isomers) [(L)-NVA-(DL)-Cl-vinylgly, L-norvalyl-D,L-3-chlorovinylglycine]",> 256,> 256,4,> 256,≤ 0.25,256,32,4,256,128,–,–,–,–,–,–
"C=C(Cl)C(N)C(=O)O (racemic) [racemic 3-chlorovinylglycine, 2-amino-3-chloro-3-butenoic acid]",–,–,–,–,–,–,–,–,–,–,not being an inactivator,–,–,–,–,–
"CCC[C@H](N)C(=O)N[C@H](C=CCl)C(=O)O [(L)-NVA-(D)-Cl-vinylgly, L-norvalyl-D-3-chlorovinylglycine]",–,> 256,128,256,16,> 256,64,32,–,> 256,–,–,–,–,–,–
"C=C(F)[C@@H](NC(=O)[C@@H](N)CCC)C(=O)O.O=C(O)C(F)(F)F [(L)-NVA-(D)-F-vinylgly, (L,D)-Norvalyl-3-fluorovinylglycine trifluoroacetate]",> 256,> 256,> 256,> 256,> 256,> 256,> 256,> 256,> 256,> 256,–,–,–,–,–,–
"C=C(F)C(NC(=O)[C@@H](N)CCC)C(=O)O (stereo partly drawn) [(L)-NVA-(DL)-F-vinylgly, (L,DL)-Norvalyl-3-fluorovinylglycine trifluoracetate]",256,> 256,> 256,128,1.0,> 256,128,4,256,8,–,64,–,–,–,–
"C=C(Cl)[C@H](NC(=O)[C@@H](N)CCC)C(=O)O.O=C(O)C(F)(F)F [(L)-NVA-(L)-Cl-vinylgly, (L,L)-Norvalyl 3-chlorovinylglycine trifluoroacetate]",> 256,> 256,4,8,0.5,256,2,1,64,32,–,–,8 of 11,–,–,–
"C=C(F)[C@H](NC(=O)[C@@H](N)CCC)C(=O)O.O=C(O)C(F)(F)F [(L)-NVA-(L)-F-vinylgly, (L,L)-Norvalyl-3-fluorovinylglycine trifluoroacetate]",64,> 256,64,16,> 256,32,2,2,128,4,–,32,9 of 11,more active,–,–
"N[C@@H](C=CCl)C(=O)O [(L)Cl vinylgly, L-3-chlorovinylglycine]",> 256,> 256,–,> 256,128,> 256,256,–,> 256,> 256,–,–,–,–,exhibits antibacterial activity,exhibits antibacterial activity
